Results as given in patent publication EP0674651B1, “SUBSTITUTED 6-AZAANDROSTENONES” (priority 1992, dated 1994).

What was measured:
[1] = molecular target: T1, human type 1 5α-reductase (Homo sapiens, UniProt P18405); test: 5α-reductase in vitro inhibitory activity, human type 1
T1 sequence (P18405 1-259): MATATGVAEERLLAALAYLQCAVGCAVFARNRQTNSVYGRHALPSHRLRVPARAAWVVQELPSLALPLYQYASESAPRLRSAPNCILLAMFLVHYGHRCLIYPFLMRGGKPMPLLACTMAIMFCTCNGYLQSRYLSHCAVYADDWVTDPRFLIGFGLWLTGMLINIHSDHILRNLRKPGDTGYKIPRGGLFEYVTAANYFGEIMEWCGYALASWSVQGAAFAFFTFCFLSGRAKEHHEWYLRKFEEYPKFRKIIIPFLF
Protocol: (§1) Microsomes were prepared by homogenization of the tissue or cells, followed by differential centrifugation of the homogenate. […] Corresponding incubations were carried out with no test compound as a control study.
For type 2 IC50 measurements, assay components except testosterone were preincubated for 20 minutes at pH 6.0, and following the addition of 8nM testosterone the assays were allowed to proceed for 20-40 minutes. The percentage of conversion of testosterone to DHT in the presence of test compounds compared to the corresponding conversion in the control study was estimated using high pressure liquid chromatography (HPLC) with radiochemical detection.

[2] = molecular target: T2, human type 2 5α-reductase (Homo sapiens, UniProt P31213); test: 5α-reductase in vitro inhibitory activity, human type 2
T2 sequence (P31213 1-254): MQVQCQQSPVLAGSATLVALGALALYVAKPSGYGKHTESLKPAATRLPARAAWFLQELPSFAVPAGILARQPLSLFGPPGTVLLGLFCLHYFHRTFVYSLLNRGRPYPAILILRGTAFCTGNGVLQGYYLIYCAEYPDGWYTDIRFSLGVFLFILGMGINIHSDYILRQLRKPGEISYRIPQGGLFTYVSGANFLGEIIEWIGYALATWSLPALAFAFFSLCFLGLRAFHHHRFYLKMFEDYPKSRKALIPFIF
Protocol: as §1
(§2) The percentage of conversion of testosterone to DHT in the presence of test compounds compared to the corresponding conversion in the control study was estimated using high pressure liquid chromatography (HPLC) with radiochemical detection.

[3] = molecular target: Rat Prostatic 5α-reductase; test: 5α-reductase in vitro inhibitory activity, rat prostatic; settings: read-out: IC50 Rat Prostatic; microsomes derived from prostate tissue from the rat
Protocol: as §1, §2

CC(C)Oc1ccc(C(=O)[C@H]2CC[C@H]3[C@@H]4CNC5=CC(=O)CC[C@]5(C)[C@H]4CC[C@]23C)cc1 [Compound 33, 17β-(1-Oxo-1 (4-isopropoxyphenyl)methyl)-6-azaandrost-4-en-3-one]
IC50 [1]: > 0.1 µM
IC50 [2]: 0.01 to 0.1 µM
IC50 [3]: 0.01 to 0.1 µM

C[C@]12CC[C@H]3[C@@H](CNC4=CC(=O)CC[C@@]43C)[C@@H]1CC[C@@H]2C(=O)Nc1ccccc1-c1ccccc1 [Compound 53, 17β-N-(2-Phenyl)phenyl-carbamoyl-6-azaandrost-4-en-3-one]
IC50 [1]: 0.01 to 0.1 µM
IC50 [2]: < 0.01 µM
IC50 [3]: < 0.01 µM

CC(NC(=O)[C@H]1CC[C@H]2[C@@H]3CNC4=CC(=O)CC[C@]4(C)[C@H]3CC[C@]12C)c1ccccc1 (stereo partly drawn) [Compound 35, 17β-N-(1-Phenyl)ethyl-carbamoyl-6-azaandrost-4-en-3-one]
IC50 [1]: > 0.1 µM
IC50 [2]: < 0.01 µM
IC50 [3]: < 0.01 µM

CC(NC(=O)[C@H]1CC[C@H]2[C@@H]3CNC4=CC(=O)CC[C@]4(C)[C@H]3CC[C@]12C)C(c1ccccc1)c1ccccc1 (stereo partly drawn) [Compound 45, 17β-N-(2,2-Diphenyl-1-methyl)ethyl-carbamoyl-6-azaandrost-4-en-3-one]
IC50 [1]: > 0.1 µM
IC50 [2]: < 0.01 µM
IC50 [3]: 0.01 to 0.1 µM

CC12CCC(=O)C=C1NCC1C2CCC2(C)C(C(=O)NC(c3ccccc3)c3ccc(Cl)cc3)CCC12 (stereo not drawn) [Compound 11, 17β-N-(4-Chlorophenyl)(phenyl)methyl-carbamoyl-6-azaandrost-4-en-3-one]
IC50 [1]: 0.01 to 0.1 µM
IC50 [2]: < 0.01 µM
IC50 [3]: < 0.01 µM

C[C@]12CC[C@H]3[C@@H](CNC4=CC(=O)CC[C@@]43C)[C@@H]1CC[C@@H]2C(=O)NCCc1ccccn1 [Compound 20, 17β-N-2-(2-Pyridyl)ethyl-carbamoyl-6-azaandrost-4-en-3-one]
IC50 [1]: > 0.1 µM
IC50 [2]: 0.01 to 0.1 µM
IC50 [3]: 0.01 to 0.1 µM

C[C@]12CC[C@H]3[C@@H](CNC4=CC(=O)CC[C@@]43C)[C@@H]1CC[C@@H]2C(=O)Nc1ccc2c(c1)CCC2 [Compound 4, 17β-N-5-Indanylcarbamoyl-6-azaandrost-4-en-3-one]
IC50 [1]: > 0.1 µM
IC50 [2]: < 0.01 µM
IC50 [3]: > 0.1 µM

C[C@]12CC[C@H]3[C@@H](CNC4=CC(=O)CC[C@@]43C)[C@@H]1CC[C@@H]2C(=O)CC(c1ccccc1)c1ccccc1 [Compound 43, 17β-(1-Oxo-3.3-diphenylpropyl)-6-azaandrost-4-en-3-one]
IC50 [1]: < 0.01 µM
IC50 [2]: < 0.01 µM
IC50 [3]: > 0.1 µM

CC12CCC(=O)C=C1NCC1C2CCC2(C)C(C(=O)Nc3ccc4c(c3)OCO4)CCC12 (stereo not drawn) [Compound 7, 17β-N-(3,4-Methylenedioxy)phenyl-carbamoyl-6-azaandrost-4-en-3-one]
IC50 [1]: > 0.1 µM
IC50 [2]: < 0.01 µM
IC50 [3]: 0.01 to 0.1 µM

Cc1cc(Br)cc(C)c1NC(=O)[C@H]1CC[C@H]2[C@@H]3CNC4=CC(=O)CC[C@]4(C)[C@H]3CC[C@]12C [Compound 46, 17β-N-(2,6-Dimethyl-4-bromo)phenyl-carbamoyl-6-azaandrost-4-en-3-one]
IC50 [1]: 0.01 to 0.1 µM
IC50 [2]: < 0.01 µM
IC50 [3]: < 0.01 µM

C[C@]12CC[C@H]3[C@@H](CNC4=CC(=O)CC[C@@]43C)[C@@H]1CC[C@@H]2C(=O)NCc1ccc(C(F)(F)F)cc1 [Compound 30, 17β-N-(4-Trifluoromethylphenyl)methyl-carbamoyl-6-azaandrost-4-en-3-one]
IC50 [1]: 0.01 to 0.1 µM
IC50 [2]: < 0.01 µM
IC50 [3]: 0.01 to 0.1 µM

CC(C)c1cccc(C(C)C)c1NC(=O)[C@H]1CC[C@H]2[C@@H]3CNC4=CC(=O)CC[C@]4(C)[C@H]3CC[C@]12C [Compound 14, 17β-N-(2,6-Di-i-propyl)phenyl-carbamoyl-6-azaandrost-4-en-3-one]
IC50 [1]: 0.01 to 0.1 µM
IC50 [2]: < 0.01 µM
IC50 [3]: < 0.01 µM

C[C@]12CC[C@H]3[C@@H](CNC4=CC(=O)CC[C@@]43C)[C@@H]1CC[C@@H]2C(=O)NC(c1ccc(Cl)cc1)c1ccc(Cl)cc1 [Compound 47]
IC50 [1]: 0.01 to 0.1 µM
IC50 [2]: < 0.01 µM
IC50 [3]: < 0.01 µM
